Laboratory results: ChEMBL document CHEMBL4138203, “Recent developments in anti-Trichomonas research: An update review” (Eur J Med Chem, 2018)
Values after ≈ are worked out from the molar mass of the structure shown.

Assays:
[1] = system: Trichomonas vaginalis; assay: Anti-Trichomonas activity against Trichomonas vaginalis; assay type: functional, organism-based
[2] = species on record: Homo sapiens; assay: Spermicidal activity in human semen assessed as induction of sperm immobilization 0.0015% after 30 secs in presence of sapindus saponin
[3] = system: Trichomonas vaginalis; assay: Anti-Trichomonas activity against Trichomonas vaginalis after 24 hrs by inverted microscopic analysis; assay type: functional
[4] = system: Trichomonas vaginalis; assay: Anti-Trichomonas activity against Trichomonas vaginalis at 100 uM; assay type: functional
[5] = system: Trichomonas vaginalis; assay: Anti-Trichomonas activity against Metronidazole-resistant Trichomonas vaginalis 085 ATCC 50143 after 48 hrs by inverted microscopic analysis; assay type: functional; details: 085 ATCC 50143, 48 h
[6] = system: Trichomonas vaginalis; assay: Anti-Trichomonas activity against Trichomonas vaginalis JT assessed as reduction in parasite growth after 24 hrs by haemocytometry; assay type: functional, organism-based
[7] = system: Trichomonas vaginalis; assay: Anti-Trichomonas activity against Trichomonas vaginalis JT assessed as reduction in parasite growth after 48 hrs by haemocytometry; assay type: functional, organism-based
[8] = system: Trichomonas vaginalis; assay: Anti-Trichomonas activity against Metronidazole-resistant Trichomonas vaginalis isolate 085 ATCC 50143 infected in Swiss Webster mouse at 25 mg/kg, po dosed for 4 days measured at 24 hrs post last dose by microscopic analysis; assay type: functional
[9] = system: Trichomonas vaginalis; assay: Potency index, ratio of Metronidazole MIC to compound MIC for anti-trichomonas activity against Metronidazole-resistant Trichomonas vaginalis 085 ATCC 50143; assay type: functional
[10] = system: Trichomonas vaginalis; assay: Anti-Trichomonas activity against metronidazole-resistant Trichomonas vaginalis after 48 hrs by trypan blue exclusion assay; assay type: functional
[11] = system: Trichomonas vaginalis; assay: Anti-Trichomonas activity against metronidazole-susceptible Trichomonas vaginalis after 48 hrs by trypan blue exclusion assay; assay type: functional
[12] = system: Trichomonas vaginalis; assay: Anti-Trichomonas activity against metronidazole-susceptible Trichomonas vaginalis ATCC 30236 after 24 hrs by hemocytometry; assay type: functional, organism-based; details: ATCC 30236, 24 h
[13] = system: Trichomonas vaginalis; assay: Anti-Trichomonas activity against metronidazole-resistant Trichomonas vaginalis IR78 ATCC 50138 cultured in TYI-S-33 media assessed as reduction in parasite growth after 30 mins by haemocytometry; assay type: functional, organism-based; details: IR78 ATCC 50138, 0.5 h
[14] = system: Trichomonas vaginalis; assay: Anti-Trichomonas activity against metronidazole-resistant Trichomonas vaginalis IR78 ATCC 50138 cultured in PBS/BSA media assessed as reduction in parasite growth after 30 mins by haemocytometry; assay type: functional, organism-based; details: IR78 ATCC 50138, 0.5 h
[15] = species on record: Homo sapiens; assay: Spermicidal activity in human semen assessed as induction of sperm immobilization; assay type: functional
[16] = system: Trichomonas vaginalis; assay: Anti-Trichomonas activity against Trichomonas vaginalis by quantitative fluorescent method; assay type: functional
[17] = system: Trichomonas vaginalis; assay: Anti-Trichomonas activity against metronidazole-susceptible Trichomonas vaginalis ATCC 30001 assessed as inhibition of parasite growth at 5.5 mM measured at 5 to 60 mins in presence of NH4Cl by trypan blue-based assay; assay type: functional
[18] = system: Trichomonas vaginalis; assay: Anti-Trichomonas activity against metronidazole-resistant Trichomonas vaginalis ATCC 50138 assessed as inhibition of parasite growth at 5.5 mM measured at 5 to 60 mins in presence of NH4Cl by trypan blue-based assay; assay type: functional
[19] = system: Trichomonas vaginalis; assay: Anti-Trichomonas activity against Trichomonas vaginalis isolate 1 at 250 uM after 48 hrs by microscopic analysis; assay type: functional; details: isolate 1, 48 h
[20] = system: Trichomonas vaginalis; assay: Anti-Trichomonas activity against Trichomonas vaginalis isolate 2 at 250 uM after 48 hrs by microscopic analysis; assay type: functional; details: isolate 2, 48 h
[21] = system: Trichomonas vaginalis; assay: Anti-Trichomonas activity against metronidazole-resistant Trichomonas vaginalis JT after 48 hrs by hemocytometry; assay type: functional, organism-based
[22] = Trichomonas vaginalis, read-out: MIC

## CCCCCCCCCCCCCCCCCCCCCCCC
[1]; [22]
  MIC: 500 to 1000 µg/mL (≈ 1480 to 2950 µM)

## Oc1cc(O)c2c(c1)O[C@H](c1ccc(O)c(O)c1)[C@H](O[C@]1(c3ccc(O)c(O)c3)Oc3cc(O)cc(O)c3[C@H](O)[C@H]1O)C2
[1]; [22]
  MIC: > 2000 µg/mL

## OC[C@H]1O[C@@H](Oc2ccc(O)cc2)[C@H](O)[C@@H](O)[C@@H]1O [ARBUTIN]
[1]; [22]
  MIC: 500 µg/mL (≈ 1840 µM)

## O=C(SCC(CN1CCCC1)SSC(CSC(=O)N1CCCCC1)CN1CCCC1)N1CCCCC1 (centres undefined)
[2]
  Activity: 100%

## CC1(C)CC[C@]2(C(=O)O)[C@H](O)C[C@]3(C)C(=CC[C@@H]4[C@@]5(C)CC[C@H](O[C@@H]6O[C@H](C(=O)O)[C@@H](O)[C@H](O)[C@H]6O)[C@@](C)(C=O)[C@@H]5CC[C@]43C)[C@@H]2C1
[1]
  MIC: 0.025%

## C[C@@H](CCC1(O)OC2CC3C4C[C@H](O[C@H]5O[C@@H](C)[C@H](O)[C@@H](O[C@H]6O[C@@H](C)[C@H](O)[C@@H](O)[C@@H]6O)[C@@H]5O)[C@H]5CC(=O)CC[C@]5(C)C4CC[C@]3(C)C2[C@@H]1C)CO[C@@H]1O[C@H](CO)[C@@H](O)[C@H](O)[C@H]1O (some centres undefined)
[3]
  MIC: 6.25 to 50 µM (≈ 5.64 to 45.2 µg/mL)

## C[C@H]1CC[C@]2(NC1)O[C@H]1C[C@H]3[C@@H]4CC[C@H]5C[C@@H](O[C@@H]6O[C@H](CO)[C@H](O[C@@H]7O[C@H](CO)[C@@H](O)[C@H](O[C@@H]8OC[C@@H](O)[C@H](O)[C@H]8O)[C@H]7O[C@@H]7O[C@H](CO)[C@@H](O)[C@H](O)[C@H]7O)[C@H](O)[C@H]6O)CC[C@]5(C)[C@H]4CC[C@]3(C)[C@H]1[C@@H]2C [TOMATINE]
[4]
  inhibition at 100 µM: 103%

## CCCCCCCCCCCCCCCCOP(=O)([O-])OCC[N+](C)(C)C [MILTEFOSINE]
[5]
  MIC: 145 µM (≈ 59.1 µg/mL)
[6]
  IC50: 14.5 µM
[7]
  IC50: 20 µM

## c1cc(CCCc2ccc(-c3nc4ccccc4[nH]3)cc2)cc(-c2nc3ccccc3[nH]2)c1
[5]
  MIC: 26 µM (≈ 11.1 µg/mL)
[8]
  Activity: 100%
[9]
  Ratio: 5.5

## C1CCNC1.S=C(S)N1CCCC1 [listing 1 of 2 here]
[10]
  MIC: 13.5 µM
[11]
  MIC: 5.25 µM

## CCCCCCCCCCCCCCCC(=O)O [PALMITIC ACID]
[1]; [22]
  MIC: 500 to 1000 µg/mL (≈ 1950 to 3900 µM)

## N#CCCCN1CCN(C(=S)SSC(=S)N2CCN(CCCC#N)CC2)CC1
[10]
  MIC: 3.12 to 50 µg/mL

## COc1c2c(cc(O)c1C(=O)C(C)C)OC(C)(C)C=C2
[12]
  IC50: 834 µM

## CCCCCCCCN=c1ccn(CCCCCCCCCCn2ccc(=NCCCCCCCC)cc2)cc1.Cl.Cl [OCTENIDINE HYDROCHLORIDE]
[13]
  EC50: 0.68 to 2.11 µg/mL
[14]
  EC50: 0.68 to 2.11 µg/mL

## COC(=O)C1=CO[C@@H](O[C@@H]2O[C@H](CO)[C@@H](O)[C@H](O)[C@H]2O)[C@H]2[C@@H]1C=C[C@@]21C=C([C@H](C)OC(=O)/C=C/c2ccc(O)cc2)C(=O)O1
[3]
  MIC: 12.5 µM (≈ 7.71 µg/mL)

## C[C@@H](CCC1(O)OC2CC3C4C[C@H](O[C@H]5O[C@@H](C)[C@H](O)[C@@H](O[C@H]6O[C@@H](C)[C@H](O)[C@@H](O)[C@@H]6O)[C@@H]5O)[C@H]5CC(O)CC[C@]5(C)C4CC[C@]3(C)C2[C@@H]1C)CO[C@@H]1O[C@H](CO)[C@@H](O)[C@H](O)[C@H]1O (some centres undefined)
[3]
  MIC: 6.25 to 50 µM (≈ 5.66 to 45.3 µg/mL)

## COc1cc2c(c(OC)c1C(=O)C(C)C)C=CC(C)(C)O2
[12]
  IC50: 226 µM

## Oc1cc(O)c2c(c1)O[C@H](c1cc(O)c(O)c(O)c1)[C@@H](O)[C@@H]2c1c(O)cc(O)c2c1O[C@H](c1cc(O)c(O)c(O)c1)[C@@H](O)C2
[1]; [22]
  MIC: > 2000 µg/mL

## COc1cc2c(c(O)c1C(=O)C(C)C)C=CC(C)(C)O2
[12]
  IC50: 1230 µM

## C1CCNC1.S=C(S)N1CCCC1 [listing 2 of 2 here]
[15]
  MEC: 145 µM

## O=C(/C=C/c1ccc(O)c(O)c1)O[C@H](Cc1ccc(O)c(O)c1)C(=O)O [ROSMARINIC ACID]
[1]; [22]
  MIC: 20 µg/mL (≈ 55.5 µM)

## C1CCNCC1.S=C(S)N1CCCC1 [listing 1 of 2 here]
[10]
  MIC: 7.8 µg/mL
[11]
  MIC: 1.56 µg/mL

## FC(F)(F)c1ccc(OC(CCN2CCCC2)c2ccccc2)cc1 (centres undefined)
[10]
  MIC: 12.5 to 50 µg/mL
[15]
  MEC: 1%

## CC1(C)CC[C@]2(C(=O)O)CC[C@]3(C)C(=CC[C@@H]4[C@@]5(C)CC[C@H](O[C@@H]6[C@@H](O)[C@H](O[C@@H]7O[C@H](CO)[C@@H](O)[C@H](O)[C@H]7O)O[C@H](CO)[C@H]6O)C(C)(C)[C@@H]5CC[C@]43C)[C@@H]2C1
[1]
  MIC: 0.25%

## CN(CCC(Oc1ccc(C(F)(F)F)cc1)c1ccccc1)C(=S)SCN1CCCC1 (centres undefined)
[10]
  MIC: 14 µg/mL
[15]
  MEC: 0.05%

## C1CCNCC1.S=C(S)N1CCCC1 [listing 2 of 2 here]
[15]
  MEC: 61.5 mg/L

## CC(C)=CCC/C(C)=C/CO [GERANIOL]
[1]; Trichomonas vaginalis
  IC50: 171 µg/mL (≈ 1110 µM)

## C=C(CO[C@@H]1O[C@H](CO)[C@@H](O)[C@H](O)[C@H]1O)[C@@H]1Cc2c(ccc3c2O[C@H]2COc4cc(OC)c(OC)cc4[C@H]2[C@@H]3O)O1
[3]
  MIC: 6.25 µM (≈ 3.59 µg/mL)

## C[C@H]1[C@H](C)CC[C@]2(C(=O)O[C@@H]3O[C@H](CO)[C@@H](O)[C@H](O)[C@H]3O)CC[C@]3(C)C(=CC[C@@H]4[C@@]5(C)CC[C@H](O[C@@H]6O[C@H](CO[C@@H]7O[C@@H](C)[C@H](O)[C@@H](O)[C@H]7O[C@@H]7O[C@H](CO)[C@@H](O)[C@H](O)[C@H]7O)[C@@H](O)[C@@H]6O)C(C)(C)[C@@H]5CC[C@]43C)[C@H]12
[16]
  MIC: 0.05%

## O=S(=O)(O)CCNCl
[17]
  inhibition at 5500 µM: 100%
[18]
  inhibition at 5500 µM: 100%

## Cc1ncc([N+](=O)[O-])n1CCO [METRONIDAZOLE]
[10]
  MIC: 1 to 111 µM
[15]
  MEC: 1%

## CCCCCCCCCCCC(=O)O[C@H]1C=C2CCN3Cc4cc5c(cc4[C@H]([C@@H]1O)[C@@H]23)OCO5
[19]
  inhibition at 250 µM: 100%
[20]
  inhibition at 250 µM: 100%

## COC(=O)C1=CO[C@H](O[C@@H]2O[C@H](CO)[C@@H](O)[C@H](O)[C@H]2O)[C@@]2(C)[C@@H](C)OC(=O)C(C)(C)[C@@H](C)OC(=O)C[C@@]12C
[3]
  MIC: 6.25 µM (≈ 3.42 µg/mL)

## OC1(c2ccc(-c3ccccc3)cc2)CN2CCC1CC2 (centres undefined)
[21]
  IC50: 46 µM

## COc1cc(/C=C/C(=O)CC(=O)/C=C/c2ccc(O)c(OC)c2)ccc1O [CURCUMIN]
[1]; Trichomonas vaginalis
  EC50: 100 µg/mL (≈ 271 µM)

## COC(=O)C1=CC[C@@H](O[C@@H]2O[C@H](CO)[C@@H](O)[C@H](O)[C@H]2O)C(CCC=O)[C@@H]1CC(=O)OCCc1ccc(O)c(O)c1 (some centres undefined)
[3]
  MIC: 12.5 µM (≈ 7.11 µg/mL)

## CC(C)C(=O)C1=C(O)C(Cc2c(O)c3c(c(C(=O)C(C)C)c2O)OC(C)(C)C=C3)=C(O)C(C)(C)C1=O
[12]
  IC50: 122 µM
